Experimental data: ChEMBL document CHEMBL5370686, “Design of Novel Series of Antimalarial PMX Inhibitors with Increased Half-Life via Molecular Property Optimization” (ACS Med Chem Lett, 2023); call rule not given here
Converted amounts (≈) assume the structure as drawn.

Columns and labels:
[1] = biological target: Plasmepsin X (Plasmodium falciparum (isolate 3D7), UniProt Q8IAS0); experiment: Inhibition of Plasmodium falciparum Plasmepsin X using Dabcyl-GSMLEVENDAEG-EDANS as substrate preincubated for 30 mins followed by substrate addition and measured every 2 mins for 30 mins by FRET assay
[2] = test system: Plasmodium falciparum; experiment: Antimalarial activity against Plasmodium falciparum 3D7 by SYBR green 1 assay; type: functional, organism-based; details: for IC50: Plasmodium falciparum, 3D7
[3] = Lipophilicity, log D of the compound in octanol/phosphate buffer at pH 7.4 incubated for 90 mins by shake flask method based LC-MS analysis; type: physicochemical; details: for logD at 1.5 h: octanol/phosphate buffer, pH 7.4
[4] = Intrinsic clearance in human hepatocytes assessed per 10^6 cells at 0.5 uM measured after 120 min by HRMS method; type: ADME, cell-based, Hepatocyte; details: read-out: CLH
[5] = Solubility of compound in FeSSIF at pH 5.8 incubated for 1 hr by LC/MS analysis; type: physicochemical
[6] = biological target: Cathepsin D (Homo sapiens, UniProt P07339); experiment: Inhibition of human Cathepsin D using Mca-GKPILFFRLK(Dnp)-D-R-NH2 as substrate preincubated for 30 mins followed by substrate addition and measured after 60 mins by FRET assay; type: toxicity
[7] = test system: Cathepsin D versus Plasmepsin X; experiment: Selectivity ratio of IC50 for human Cathepsin D to IC50 for Plasmodium falciparum Plasmepsin X; type: toxicity; details: read-out: Ratio IC50
[8] = Clearance in Sprague-Dawley rat plasma at 1 mg/kg, iv administered via bolus by LC-MS/MS analysis; type: ADME, organism-based
[9] = Volume of distribution at steady state in Sprague-Dawley rat plasma at 1 mg/kg, iv administered via bolus by LC-MS/MS analysis; type: ADME, organism-based; details: read-out: Vdss
[10] = AUC in Sprague-Dawley rat plasma at 1 mg/kg, iv administered via bolus at LC-MS/MS analysis; type: ADME, organism-based; set-up: dose 1 mg/kg, route iv
[11] = Half-life in Sprague-Dawley rat plasma at 1 mg/kg, iv administered via bolus at LC-MS/MS analysis; type: ADME, organism-based
[12] = Cmax in Sprague-Dawley rat plasma at 10 mg/kg, po administered via gavage by LC-MS/MS analysis; type: ADME, organism-based; set-up: dose 10 mg/kg, route po
[13] = Tmax in Sprague-Dawley rat plasma at 10 mg/kg, po administered via gavage by LC-MS/MS analysis; type: ADME, organism-based
[14] = AUC in Sprague-Dawley rat plasma at 10 mg/kg, po administered via gavage by LC-MS/MS analysis; type: ADME, organism-based; set-up: dose 10 mg/kg, route po
[15] = Apparent oral bioavailability in Sprague-Dawley rat plasma at 10 mg/kg administered via gavage by LC-MS/MS analysis; type: ADME, organism-based; details: read-out: Fapp
[16] = Drug level treated with (S)-6-(2,3'-dichloro-[1,1'-biphenyl]-3-yl)-2-imino-6-methyl-3-((2S,4S)-2-methyltetrahydro-2H-pyran-4-yl)tetrahydropyrimidin-4(1H)-one in human hepatocytes at 2 uM measured after 120 mins by UHPLC-MS analysis; type: ADME, cell-based, Hepatocyte
[17] = Drug metabolism in human hepatocytes assessed as (S)-4-(2,3'-dichloro-[1,1'-biphenyl]-3-yl)-4-methyltetrahydropyrimidin-2(1H)-imine formation at 2 uM measured after 120 mins by UHPLC-MS analysis; type: ADME, cell-based, Hepatocyte; details: 2 h
[18] = Drug metabolism in human hepatocytes at 2 uM measured after 120 mins by UHPLC-MS analysis; type: ADME, cell-based, Hepatocyte; details: 2 h

Sequence of Plasmepsin X (Q8IAS0 whole entry): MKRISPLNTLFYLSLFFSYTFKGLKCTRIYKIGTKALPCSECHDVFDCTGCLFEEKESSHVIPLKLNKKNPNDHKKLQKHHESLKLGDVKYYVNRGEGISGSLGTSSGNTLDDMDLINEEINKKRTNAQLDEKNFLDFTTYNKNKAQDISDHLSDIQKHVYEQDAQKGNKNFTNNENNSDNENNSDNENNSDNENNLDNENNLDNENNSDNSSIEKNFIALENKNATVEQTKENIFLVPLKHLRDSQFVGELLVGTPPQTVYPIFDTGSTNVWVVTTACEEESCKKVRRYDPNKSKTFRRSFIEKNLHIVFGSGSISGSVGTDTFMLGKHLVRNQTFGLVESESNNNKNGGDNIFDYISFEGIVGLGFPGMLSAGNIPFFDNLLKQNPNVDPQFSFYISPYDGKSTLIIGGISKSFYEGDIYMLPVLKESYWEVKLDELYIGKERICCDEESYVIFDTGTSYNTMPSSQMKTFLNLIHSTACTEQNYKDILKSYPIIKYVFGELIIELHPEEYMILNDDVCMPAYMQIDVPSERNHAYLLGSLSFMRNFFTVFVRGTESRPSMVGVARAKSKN
Sequence of Cathepsin D (P07339 65-162 limits assumed): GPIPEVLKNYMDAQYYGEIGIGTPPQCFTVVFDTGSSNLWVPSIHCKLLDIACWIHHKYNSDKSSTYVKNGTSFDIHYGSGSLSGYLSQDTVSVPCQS
Sequence of Cathepsin D (P07339 169-412 limits assumed): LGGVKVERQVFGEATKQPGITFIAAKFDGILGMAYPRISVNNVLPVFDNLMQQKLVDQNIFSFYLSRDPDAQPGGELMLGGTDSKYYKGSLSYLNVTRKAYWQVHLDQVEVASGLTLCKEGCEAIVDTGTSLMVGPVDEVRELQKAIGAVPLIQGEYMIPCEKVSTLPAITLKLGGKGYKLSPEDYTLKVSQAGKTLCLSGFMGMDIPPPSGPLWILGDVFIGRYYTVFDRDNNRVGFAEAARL

| Structure (SMILES) | IC50 [1] [nM] | FIC50 [2] [nM] | IC50 [2] [nM] | logD at 1.5 h [3] | hepatocyte CLint at 0.5 µM [4] [µL/min/1e6 cells] | solubility at 1 h [5] [µM] | IC50 [6] [nM] | selectivity ratio [7] | logD ([3]; octanol/water, pH 7.4, 1.5 h, BLD = below limit of detection) | clearance [8] [mL/min/kg] | Vd [9] [L/kg] | AUC [10] [µM·h] | half-life [11] [h] | Cmax [12] [nM] | Tmax [13] [h] | AUC [14] [µM·h] | bioavailability [15] [%] | Drug uptake [16] | Drug metabolism [17] | Drug metabolism [18] |
| --- | --- | --- | --- | --- | --- | --- | --- | --- | --- | --- | --- | --- | --- | --- | --- | --- | --- | --- | --- | --- |
| C[C@H]1C[C@@H](N2C(=N)N[C@](C)(c3cccc(-c4ccc(OC(F)F)nc4)c3Cl)CC2=O)CCS1(=O)=O | 10.8 | 23.4 | 84.9 | 2.1 | < 3 | 1030 (≈ 543 µg/mL) | 593 | 53.9 |  |  |  |  |  |  |  |  |  |  |  |  |
| C[C@H]1C[C@@H](N2C(=N)N[C@](C)(c3cccc(-c4ccc(F)cc4F)c3Cl)CC2=O)CCS1(=O)=O | 10.2 | 16.7 | 74.1 | 2.4 | 3.3 | 1130 (≈ 558 µg/mL) | 366 | 36.5 |  |  |  |  |  |  |  |  |  |  |  |  |
| CN(C)[C@H]1C[C@@H](N2C(=N)N[C@](C)(c3cccc(-c4ccc(F)cc4F)c3Cl)CC2=O)C1 | 2260 | 251.5 | 657 | 1.5 | 16 | > 1500 | 28300 | 12.5 |  |  |  |  |  |  |  |  |  |  |  |  |
| C[C@H]1C[C@@H](N2C(=N)N[C@](C)(c3cccc(-c4ccc(F)cc4F)c3Cl)CC2=O)CCN1C | 263 | 37.4 | 93.5 | 1.8 | 8.2 | > 1500 | 3820 | 14.5 |  |  |  |  |  |  |  |  |  |  |  |  |
| C[C@H]1C[C@@H](N2C(=N)N[C@](C)(c3cccc(-c4cncc(Cl)c4)c3Cl)CC2=O)CCO1 | 8.8 | 15.2 | 21.6 | 2.5 | 75 | > 1500 | 32.3 | 3.5 |  |  |  |  |  |  |  |  |  |  |  |  |
| C[C@H]1C[C@@H](N2C(=N)N[C@](C)(c3cccc(-c4ccc(OC(F)(F)F)cc4Cl)c3Cl)CC2=O)CCO1 | 9.5 | 0.8 | 78.1 |  | < 3 | 833 (≈ 442 µg/mL) | 1590 | 176 | Bld |  |  |  |  |  |  |  |  |  |  |  |
| C[C@H]1C[C@@H](N2C(=N)N[C@](C)(c3cccc(-c4ccc(F)cc4F)c3Cl)CC2=O)CCO1 | 9.4 | 21.3 | 95 | 2.9 | 18 | 1010 (≈ 451 µg/mL) | 644 | 71 |  |  |  |  |  |  |  |  |  |  |  |  |
| C[C@@]1(c2cccc(-c3cccc(Cl)c3)c2Cl)CC(=O)N([C@H]2CCOC[C@@H]2O)C(=N)N1 | 56.5 | 135.6 | 323 | 2.4 | 8.2 | 1390 (≈ 624 µg/mL) | 226 | 3.9 |  |  |  |  |  |  |  |  |  |  |  |  |
| C[C@H]1C[C@@H](N2C(=N)N[C@](C)(c3cccc(-c4ccc(OC(F)(F)F)nc4)c3Cl)CC2=O)CCS1(=O)=O | 11.2 | 27.9 | 107 | 2.4 | < 3 | 697 (≈ 380 µg/mL) | 1540 | 140 |  | 20 | 13.1 | 1.6 | 9.2 | 423 | 4 | 4.68 | 29 |  |  |  |
| C[C@H]1C[C@@H](N2C(=N)N[C@](C)(c3cccc(-c4cnn5cccnc45)c3Cl)CC2=O)CCO1 | 22.4 | 131.3 | 137 | 1.2 | 18 | > 1500 | 1300 | 59 |  |  |  |  |  |  |  |  |  |  |  |  |
| C[C@H]1C[C@@H](N2C(=N)N[C@](C)(c3cccc(-c4ccc(Cl)cc4Cl)c3Cl)CC2=O)CCO1 | 5.2 | 3.5 | 66.2 | 3.4 | 5.7 | 69 (≈ 33.2 µg/mL) | 771 | 154 |  |  |  |  |  |  |  |  |  |  |  |  |
| C[C@@]1(c2cccc(-c3cccc(Cl)c3)c2Cl)CCNC(=N)N1 |  |  |  |  |  |  |  |  |  |  |  |  |  |  |  |  |  | Active |  |  |
| C[C@H]1C[C@@H](N2C(=N)N[C@](C)(c3cccc(NC(=O)c4cccc(C#N)c4)c3Cl)CC2=O)CCO1 | 7.6 | 7.7 | 8.3 | 1.3 | 4 | 1020 (≈ 490 µg/mL) |  | 555 |  |  |  |  |  |  |  |  | 18 |  |  |  |
| C[C@H]1C[C@@H](N2C(=N)N[C@](C)(c3cccc(-c4cccc(Cl)c4)c3Cl)CC2=O)CCO1 | 7.7 | 16.2 | 92.3 | 3.7 | 26 | 664 (≈ 296 µg/mL) | 10.8 | 1.3 |  |  |  |  |  |  |  |  |  |  | Metabolite_Detected | Metabolite_Detected |
| C[C@H]1C[C@@H](N2C(=N)N[C@](C)(c3cccc(-c4ccc5ncn(CC(F)(F)F)c5c4)c3Cl)CC2=O)CCO1 | 11.2 | 12.4 | 26.1 | 2.5 | 46 | 378 (≈ 202 µg/mL) | 3.9 | 0.3 |  |  |  |  |  |  |  |  |  |  |  |  |
| C[C@@H]1C[C@H](N2C(=N)N[C@](C)(c3cccc(-c4cccc(Cl)c4)c3Cl)CC2=O)CC[C@@H]1O | 9.9 | 40.9 | 246 | 3.5 | 25 | > 1500 | 47.3 | 4.7 |  |  |  |  |  |  |  |  |  |  |  |  |
| C[C@@]1(c2cccc(-c3ccc(F)cc3F)c2Cl)CC(=O)N([C@H]2CCC(F)(F)[C@@H](O)C2)C(=N)N1 | 23.3 | 32.5 | 280 | 2.4 | 4.7 |  | 396 | 17 |  |  |  |  |  |  |  |  |  |  |  |  |
| C[C@H]1C[C@@H](N2C(=N)N[C@](C)(c3cccc(-c4ccc(C5CC5)nc4)c3Cl)CC2=O)CCS1(=O)=O | 12.8 | 27.1 | 87.5 | 2 | < 3 |  | 2680 | 206 |  |  |  |  |  |  |  |  |  |  |  |  |
| C[C@H]1C[C@@H](N2C(=N)N[C@](C)(c3cccc(-c4ccccc4Cl)c3Cl)CC2=O)CCO1 | 10.9 | 28.4 | 105 | 3 | 29 | 562 (≈ 251 µg/mL) | 2240 | 204 |  |  |  |  |  |  |  |  |  |  |  |  |
